Read-outs that look alike come from different tables or passages of the source.
System: HCV 1b-377-neo replicon cells
Test: HCV replicon assay, HCV 1b-377-neo replicon cells (1b FRET)
Format: cell-based, Hepatitis C virus genotype 1b
Settings: HCV 1b-377-neo replicon cells, HCV 1b genotype, read-out: EC50 range against HCV 1b (Table 2, Range)
In short: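 Compounds tested in HCV genotype 1b-377-neo replicon cells with a FRET read-out. Cells resistant to a reference NS5A inhibitor through a Y2065H NS5A mutation were run alongside wild-type cells.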

Compound	EC50 (Hepatitis C virus)	EC50
CCN(CC)[C@@H](COC)C(=O)N1CCC[C@H]1c1ncc(-c2ccc(-c3ccc(-c4cnc([C@@H]5CCCN5C(=O)[C@@H](NC(=O)OC)C(C)C)[nH]4)cc3)cc2)[nH]1 [Example M88, methyl ((1S)-1-(((2S)-2-(5-(4′-(2-((2S)-1-(N,N-diethyl-O-methyl-L-seryl)-2-pyrrolidinyl)-1H-imidazol-5-yl)-4-biphenylyl)-1H-imidazol-2-yl)-1-pyrrolidinyl)carbonyl)-2-methylpropyl)carbamate]	1 to 99 nM	
CCN(CC)[C@H](CC(N)=O)C(=O)N1CCC[C@H]1c1ncc(-c2ccc(-c3ccc(-c4cnc([C@@H]5CCCN5C(=O)[C@@H](NC(=O)OC)C(C)C)[nH]4)cc3)cc2)[nH]1 [Example M89, methyl ((1S)-1-(((2S)-2-(5-(4′-(2-((2S)-1-(N^2,N^2-diethyl-D-asparaginyl)-2-pyrrolidinyl)-1H-imidazol-5-yl)-4-biphenylyl)-1H-imidazol-2-yl)-1-pyrrolidinyl)carbonyl)-2-methylpropyl)carbamate]	1 to 99 nM	
COC(=O)N[C@H](C(=O)N1CCC[C@H]1c1ncc(-c2ccc(-c3ccc(-c4cnc([C@H]5CCCN5C(=O)[C@H](NC(=O)OC)C(C)C)[nH]4)cc3)cc2)[nH]1)C(C)C [Example M90, methyl ((1S)-1-(((2S)-2-(5-(4′-(2-((2R)-1-((2R)-2-((methoxycarbonyl)amino)-3-methylbutanoyl)-2-pyrrolidinyl)-1H-imidazol-5-yl)-4-biphenylyl)-1H-imidazol-2-yl)-1-pyrrolidinyl)carbonyl)-2-methylpropyl)carbamate]	1000 to 10000 nM	
CCN(CC)[C@H](COC)C(=O)N1CCC[C@H]1c1ncc(-c2ccc(-c3ccc(-c4cnc([C@@H]5CCCN5C(=O)[C@@H](NC(=O)OC)C(C)C)[nH]4)cc3)cc2)[nH]1 [Example M91, methyl ((1S)-1-(((2S)-2-(5-(4′-(2-((2S)-1-(N,N-diethyl-O-methyl-D-seryl)-2-pyrrolidinyl)-1H-imidazol-5-yl)-4-biphenylyl)-1H-imidazol-2-yl)-1-pyrrolidinyl)carbonyl)-2-methylpropyl)carbamate]	1 to 99 nM	
CCN(CC)[C@@H](C(=O)N1CCC[C@H]1c1ncc(-c2ccc(-c3ccc(-c4cnc([C@@H]5CCCN5C(=O)[C@@H](NC(=O)OC)C(C)C)[nH]4)cc3)cc2)[nH]1)C(C)(C)C [Example M91x]		1 to 99 nM
COC(=O)N[C@@H](CC(N)=O)C(=O)N1CCC[C@H]1c1ncc(-c2ccc(-c3ccc(-c4cnc([C@@H]5CCCN5C(=O)[C@@H](NC(=O)OC)C(C)C)[nH]4)cc3)cc2)[nH]1 [Example M91y, methyl ((1S)-3-amino-1-(((2S)-2-(5-(4′-(2-((2S)-1-((2S)-2-((methoxycarbonyl)amino)-3-methylbutanoyl)-2-pyrrolidinyl)-1H-imidazol-5-yl)-4-biphenylyl)-1H-imidazol-2-yl)-1-pyrrolidinyl)carbonyl)-3-oxopropyl)carbamate (non-preferred name)]		100 to 999 nM
COC(=O)N[C@@H](C)C(=O)N1CCC[C@H]1c1ncc(-c2ccc(-c3ccc(-c4cnc([C@@H]5CCCN5C(=O)c5ncco5)[nH]4)cc3)cc2)[nH]1 [Example M92, methyl ((1S)-1-methyl-2-((S)-2-(5-(4′-(2-((2S)-1-(1,3-oxazol-2-ylcarbonyl)-2-pyrrolidinyl)-1H-imidazol-5-yl)-4-biphenylyl)-1H-imidazol-2-yl)-1-pyrrolidinyl)-2-oxoethyl)carbamate]	1000 to 10000 nM	
COC(=O)N[C@@H](C)C(=O)N1CCC[C@H]1c1ncc(-c2ccc(-c3ccc(-c4cnc([C@@H]5CCCN5C(=O)[C@@H](NC(=O)OC)C5CC5)[nH]4)cc3)cc2)[nH]1 [Example M93, methyl ((1S)-1-cyclopropyl-2-((2S)-2-(5-(4′-(2-((2S)-1-(N-(methoxycarbonyl)-L-alanyl)-2-pyrrolidinyl)-1H-imidazol-5-yl)-4-biphenylyl)-1H-imidazol-2-yl)-1-pyrrolidinyl)-2-oxoethyl)carbamate]	1 to 99 nM	
CCC[C@H](NC(=O)OC)C(=O)N1CCC[C@H]1c1ncc(-c2ccc(-c3ccc(-c4cnc([C@@H]5CCCN5C(=O)[C@H](C)NC(=O)OC)[nH]4)cc3)cc2)[nH]1 [Example M94, methyl ((1S)-1-(((2S)-2-(5-(4′-(2-((2S)-1-((2S)-2-((methoxycarbonyl)amino)propanoyl)-2-pyrrolidinyl)-1H-imidazol-5-yl)-4-biphenylyl)-1H-imidazol-2-yl)-1-pyrrolidinyl)carbonyl)butyl) carbamate]		1 to 99 nM
COC(=O)N[C@@H](C)C(=O)N1CCC[C@H]1c1ncc(-c2ccc(-c3ccc(-c4cnc([C@@H]5CCCN5C(=O)[C@@H](NC(=O)OC)C(C)(C)C)[nH]4)cc3)cc2)[nH]1 [Example M95, methyl ((1S)-1-(((2S)-2-(5-(4′-(2-((2S)-1-(N-(methoxycarbonyl)-L-alanyl)-2-pyrrolidinyl)-1H-imidazol-5-yl)-4-biphenylyl)-1H-imidazol-2-yl)-1-pyrrolidinyl)carbonyl)-2,2-dimethylpropyl)carbamate]	1 to 99 nM	
CCN(CC)[C@H](C)C(=O)N1CCC[C@H]1c1ncc(-c2ccc(-c3ccc(-c4cnc([C@@H]5CCCN5C(=O)[C@H](C)NC(=O)OC)[nH]4)cc3)cc2)[nH]1 [Example M96, methyl ((1S)-2-((2S)-2-(5-(4′-(2-((2S)-1-(N,N-diethyl-D-alanyl)-2-pyrrolidinyl)-1H-imidazol-5-yl)-4-biphenylyl)-1H-imidazol-2-yl)-1-pyrrolidinyl)-1-methyl-2-oxoethyl)carbamate]	100 to 999 nM	
COC(=O)N[C@@H](C)C(=O)N1CCC[C@H]1c1ncc(-c2ccc(-c3ccc(-c4cnc([C@@H]5CCCN5C(=O)C(c5ccccc5)N5C6CCC5CC6)[nH]4)cc3)cc2)[nH]1 (stereo partly drawn) [Example M97, methyl ((1S)-2-((2S)-2-(5-(4′-(2-((2S)-1-(7-azabicyclo[2.2.1]hept-7-yl(phenyl)acetyl)-2-pyrrolidinyl)-1H-imidazol-5-yl)-4-biphenylyl)-1H-imidazol-2-yl)-1-pyrrolidinyl)-1-methyl-2-oxoethyl)carbamate]	1 to 99 nM	
COC(=O)N[C@@H](C)C(=O)N1CCC[C@H]1c1ncc(-c2ccc(-c3ccc(-c4cnc([C@@H]5CCCN5C(=O)[C@H](O)c5ccccc5)[nH]4)cc3)cc2)[nH]1 [Example M98, methyl ((1S)-2-((2S)-2-(5-(4′-(2-((2S)-1-((2R)-2-hydroxy-2-phenylacetyl)-2-pyrrolidinyl)-1H-imidazol-5-yl)-4-biphenylyl)-1H-imidazol-2-yl)-1-pyrrolidinyl)-1-methyl-2-oxoethyl)carbamate]	1 to 99 nM	
CCN(C)[C@@H](C(=O)N1CCC[C@H]1c1ncc(-c2ccc(-c3ccc(-c4cnc([C@@H]5CCCN5C(=O)[C@H](C)NC(=O)OC)[nH]4)cc3)cc2)[nH]1)c1ccccc1 [Example M99, methyl ((1S)-2-((2S)-2-(5-(4′-(2-((2S)-1-((2R)-2-(ethyl(methyl)amino)-2-phenylacetyl)-2-pyrrolidinyl)-1H-imidazol-5-yl)-4-biphenylyl)-1H-imidazol-2-yl)-1-pyrrolidinyl)-1-methyl-2-oxoethyl)carbamate]	1 to 99 nM	
COC[C@H](NC(=O)OC)C(=O)N1CCC[C@H]1c1ncc(-c2ccc(-c3ccc(-c4cnc([C@@H]5CCCN5C(=O)[C@H](C)NC(=O)OC)[nH]4)cc3)cc2)[nH]1 [Example M100, methyl ((1S)-2-((2S)-2-(5-(4′-(2-((2S)-1-(N-(methoxycarbonyl)-L-alanyl)-2-pyrrolidinyl)-1H-imidazol-5-yl)-4-biphenylyl)-1H-imidazol-2-yl)-1-pyrrolidinyl)-1-(methoxymethyl)-2-oxoethyl)carbamate]	1 to 99 nM	
CCN(CC)[C@@H](C(=O)N1CCC[C@H]1c1ncc(-c2ccc(-c3ccc(-c4cnc([C@@H]5CCCN5C(=O)[C@H](C)NC(=O)OC)[nH]4)cc3)cc2)[nH]1)C(C)C [Example M101, methyl ((1S)-2-((2S)-2-(5-(4′-(2-((2S)-1-(N,N-diethyl-D-valyl)-2-pyrrolidinyl)-1H-imidazol-5-yl)-4-biphenylyl)-1H-imidazol-2-yl)-1-pyrrolidinyl)-1-methyl-2-oxoethyl)carbamate]	100 to 999 nM	
CCCN(CCC)[C@H](C)C(=O)N1CCC[C@H]1c1ncc(-c2ccc(-c3ccc(-c4cnc([C@@H]5CCCN5C(=O)[C@H](C)NC(=O)OC)[nH]4)cc3)cc2)[nH]1 [Example M102, methyl ((1S)-2-((2S)-2-(5-(4′-(2-((2S)-1-(N,N-dipropyl-D-alanyl)-2-pyrrolidinyl)-1H-imidazol-5-yl)-4-biphenylyl)-1H-imidazol-2-yl)-1-pyrrolidinyl)-1-methyl-2-oxoethyl)carbamate]	1 to 99 nM	
CCCN(CCC)[C@@H](C)C(=O)N1CCC[C@H]1c1ncc(-c2ccc(-c3ccc(-c4cnc([C@@H]5CCCN5C(=O)[C@H](C)NC(=O)OC)[nH]4)cc3)cc2)[nH]1 [Example M103, methyl ((1S)-2-((2S)-2-(5-(4′-(2-((2S)-1-(N,N-dipropyl-L-alanyl)-2-pyrrolidinyl)-1H-imidazol-5-yl)-4-biphenylyl)-1H-imidazol-2-yl)-1-pyrrolidinyl)-1-methyl-2-oxoethyl)carbamate]	100 to 999 nM	
COC(=O)N[C@H](C(=O)N1CCC[C@H]1c1ncc(-c2ccc(-c3ccc(-c4cnc([C@@H]5CCCN5C(=O)[C@@H](N)C(C)(C)O)[nH]4)cc3)cc2)[nH]1)C(C)C [Example M104, methyl ((1S)-1-(((2S)-2-(5-(4′-(2-((2S)-1-(3-hydroxy-L-valyl)-2-pyrrolidinyl)-1H-imidazol-5-yl)-4-biphenylyl)-1H-imidazol-2-yl)-1-pyrrolidinyl)carbonyl)-2-methylpropyl)carbamate]	100 to 999 nM	
COC(=O)N[C@H](C(=O)N1CCC[C@H]1c1ncc(-c2ccc(-c3ccc(-c4cnc([C@@H]5CCCN5C(=O)[C@@H](NC(=O)OC)C(C)(C)O)[nH]4)cc3)cc2)[nH]1)C(C)C [Example M105]	1 to 99 nM	
COC(=O)N[C@H](C(=O)N1CCC[C@H]1c1ncc(-c2ccc(-c3ccc(-c4cnc([C@@H]5CCCN5C(=O)[C@@H](NC(=O)OC)[C@@H](C)CO)[nH]4)cc3)cc2)[nH]1)C(C)C [Example M106]	1 to 99 nM	

— patent publication US8574563B2 (Bristol-Myers Squibb Company, priority 2006, dated 2013)
